The source made the active and inactive calls.
Tests used:
[1] = test system: Streptococcus sp. 'group A'; experiment: Streptococcus pyogenes SK(-)GAS viability under kanamycin – luminescence, BacTiterGlo, confirmation, counter-screen for streptokinase expression inhibitor project, dose response (AID 1900); format: functional, organism-based
Streptokinase A = biological target: T1, Streptokinase A (Streptococcus pyogenes serotype M1, UniProt P10520); experiment: viability-normalized secreted streptokinase activity reduction – plasminogen activation absorbance, OD405, dose response (AID 1914); format: functional, Streptococcus pyogenes M1 GAS;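 also: secreted streptokinase activity via plasminogen activation per viability signal from cell pellet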
T1 sequence (P10520 whole entry): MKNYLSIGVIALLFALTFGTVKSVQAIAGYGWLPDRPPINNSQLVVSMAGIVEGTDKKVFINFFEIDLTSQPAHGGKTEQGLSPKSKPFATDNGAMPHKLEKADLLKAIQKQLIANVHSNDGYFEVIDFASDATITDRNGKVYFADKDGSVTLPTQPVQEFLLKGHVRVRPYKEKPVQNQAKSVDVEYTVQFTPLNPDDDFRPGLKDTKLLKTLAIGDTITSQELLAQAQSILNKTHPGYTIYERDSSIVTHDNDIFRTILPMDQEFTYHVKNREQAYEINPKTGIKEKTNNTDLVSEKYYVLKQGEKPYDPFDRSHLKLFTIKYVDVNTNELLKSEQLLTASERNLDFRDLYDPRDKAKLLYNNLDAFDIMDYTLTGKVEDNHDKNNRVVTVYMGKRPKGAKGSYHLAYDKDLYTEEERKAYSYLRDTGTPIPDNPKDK

Streptococcus = experiment: GAS UMAA2166 growth inhibition – luminescence, BacTiterGlo, counter-screen for streptokinase expression inhibitor project, dose response (AID 1915); format: functional, organism-based;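 also: potency for reduction of bacterial viability or growth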
X-box-binding protein 1 = biological target: T2, X-box-binding protein 1 (Homo sapiens, UniProt P17861); format: functional, Cricetulus griseus;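 also: confirmatory dose-response counter-screen serving a CHOP assay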
T2 sequence (P17861 whole entry): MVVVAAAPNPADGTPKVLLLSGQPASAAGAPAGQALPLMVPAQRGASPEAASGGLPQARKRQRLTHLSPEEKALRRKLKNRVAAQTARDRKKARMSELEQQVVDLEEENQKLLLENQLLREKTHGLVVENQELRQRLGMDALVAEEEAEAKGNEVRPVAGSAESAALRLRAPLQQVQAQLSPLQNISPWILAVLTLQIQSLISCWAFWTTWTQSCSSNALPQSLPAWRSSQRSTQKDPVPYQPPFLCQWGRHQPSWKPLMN

Saccharomyces cerevisiae = experiment: S. cerevisiae Caspase-1/ASC signal blockers IC50, NALP1 inhibitor project selectivity test (AID 488863); format: functional, organism-based
[2] = biological target: T3, NACHT, LRR and PYD domains-containing protein 1 (Homo sapiens, UniProt Q9C000); experiment: NALP1 inhibitors in yeast, dose response, luminescent (AID 488860); format: functional
T3 sequence (Q9C000 whole entry): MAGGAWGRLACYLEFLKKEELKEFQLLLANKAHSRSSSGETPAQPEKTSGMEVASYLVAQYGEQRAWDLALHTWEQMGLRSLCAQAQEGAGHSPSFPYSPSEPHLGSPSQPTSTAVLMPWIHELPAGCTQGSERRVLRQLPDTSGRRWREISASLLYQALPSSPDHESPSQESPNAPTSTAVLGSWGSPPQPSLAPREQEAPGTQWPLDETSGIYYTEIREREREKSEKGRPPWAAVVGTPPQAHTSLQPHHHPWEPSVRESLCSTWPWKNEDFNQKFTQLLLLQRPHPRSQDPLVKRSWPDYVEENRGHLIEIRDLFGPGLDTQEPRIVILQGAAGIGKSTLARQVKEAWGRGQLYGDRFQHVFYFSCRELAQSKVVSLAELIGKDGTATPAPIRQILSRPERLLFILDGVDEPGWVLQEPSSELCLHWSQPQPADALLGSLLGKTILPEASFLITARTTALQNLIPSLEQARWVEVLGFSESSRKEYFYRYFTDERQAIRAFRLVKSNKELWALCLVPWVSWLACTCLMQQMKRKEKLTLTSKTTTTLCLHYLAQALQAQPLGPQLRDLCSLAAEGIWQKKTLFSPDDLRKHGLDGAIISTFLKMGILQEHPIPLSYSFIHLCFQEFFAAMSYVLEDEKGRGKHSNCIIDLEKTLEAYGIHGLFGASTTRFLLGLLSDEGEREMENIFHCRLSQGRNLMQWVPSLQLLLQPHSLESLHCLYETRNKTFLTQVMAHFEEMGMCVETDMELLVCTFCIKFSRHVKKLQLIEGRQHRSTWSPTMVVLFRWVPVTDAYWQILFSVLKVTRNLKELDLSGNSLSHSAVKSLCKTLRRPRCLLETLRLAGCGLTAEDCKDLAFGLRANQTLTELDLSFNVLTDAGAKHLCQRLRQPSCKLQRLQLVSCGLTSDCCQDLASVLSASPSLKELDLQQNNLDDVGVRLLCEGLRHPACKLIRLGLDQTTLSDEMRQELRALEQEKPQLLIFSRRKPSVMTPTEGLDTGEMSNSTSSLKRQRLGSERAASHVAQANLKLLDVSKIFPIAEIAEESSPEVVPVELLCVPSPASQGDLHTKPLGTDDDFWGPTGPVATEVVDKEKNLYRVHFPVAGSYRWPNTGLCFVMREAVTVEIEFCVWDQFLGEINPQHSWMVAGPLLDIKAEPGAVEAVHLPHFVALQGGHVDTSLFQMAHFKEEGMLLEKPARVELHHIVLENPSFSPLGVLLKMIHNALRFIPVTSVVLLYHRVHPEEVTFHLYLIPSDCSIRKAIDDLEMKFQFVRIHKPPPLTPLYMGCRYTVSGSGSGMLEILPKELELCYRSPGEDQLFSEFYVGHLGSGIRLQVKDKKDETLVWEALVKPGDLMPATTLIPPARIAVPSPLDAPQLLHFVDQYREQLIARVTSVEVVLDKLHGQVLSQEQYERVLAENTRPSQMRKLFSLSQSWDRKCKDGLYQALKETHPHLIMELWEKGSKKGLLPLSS

[3] = biological target: T4, Short transient receptor potential channel 4 (Mus musculus, UniProt Q9QUQ5); experiment: potentiation of DAMGO-evoked TRPC4 calcium signal – cell-based, HEK293 TRPC4/mu-opioid, Fluo-4 calcium, EC20 DAMGO, dose response (AID 434941); format: functional
T4 sequence (Q9QUQ5 whole entry): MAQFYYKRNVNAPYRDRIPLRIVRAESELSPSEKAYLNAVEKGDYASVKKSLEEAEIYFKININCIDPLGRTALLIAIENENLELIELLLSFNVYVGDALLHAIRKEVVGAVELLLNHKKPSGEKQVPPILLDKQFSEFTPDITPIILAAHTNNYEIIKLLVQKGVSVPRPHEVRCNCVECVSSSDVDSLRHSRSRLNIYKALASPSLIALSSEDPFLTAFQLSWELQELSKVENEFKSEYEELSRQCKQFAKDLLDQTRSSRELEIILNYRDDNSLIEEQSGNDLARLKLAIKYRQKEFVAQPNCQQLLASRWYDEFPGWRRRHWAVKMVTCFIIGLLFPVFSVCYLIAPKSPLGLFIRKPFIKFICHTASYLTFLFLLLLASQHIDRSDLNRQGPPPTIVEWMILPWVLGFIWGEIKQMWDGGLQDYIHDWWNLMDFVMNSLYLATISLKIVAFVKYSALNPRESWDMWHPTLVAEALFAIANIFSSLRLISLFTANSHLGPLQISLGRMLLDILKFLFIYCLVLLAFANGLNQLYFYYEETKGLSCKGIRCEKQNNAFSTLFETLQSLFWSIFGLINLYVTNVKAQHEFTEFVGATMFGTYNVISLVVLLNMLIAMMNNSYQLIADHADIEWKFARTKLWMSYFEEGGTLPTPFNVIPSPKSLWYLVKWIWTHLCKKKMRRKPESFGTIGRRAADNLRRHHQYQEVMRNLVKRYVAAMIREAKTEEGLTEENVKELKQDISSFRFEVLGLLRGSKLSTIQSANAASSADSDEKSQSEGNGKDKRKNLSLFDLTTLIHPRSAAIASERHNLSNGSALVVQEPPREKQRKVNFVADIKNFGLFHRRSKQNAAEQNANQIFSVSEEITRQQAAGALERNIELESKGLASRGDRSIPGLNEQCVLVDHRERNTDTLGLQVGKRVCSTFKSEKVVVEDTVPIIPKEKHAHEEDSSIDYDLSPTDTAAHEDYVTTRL

[4] = biological target: G-protein coupled receptor 55 (Homo sapiens, UniProt Q9Y2T6); experiment: selective activators of receptor GPR55 – imaging, U2OS cells, beta-arrestin-GFP redistribution, primary screen (AID 1961); format: functional
Chain of G-protein coupled receptor 55 (Q9Y2T6 whole entry): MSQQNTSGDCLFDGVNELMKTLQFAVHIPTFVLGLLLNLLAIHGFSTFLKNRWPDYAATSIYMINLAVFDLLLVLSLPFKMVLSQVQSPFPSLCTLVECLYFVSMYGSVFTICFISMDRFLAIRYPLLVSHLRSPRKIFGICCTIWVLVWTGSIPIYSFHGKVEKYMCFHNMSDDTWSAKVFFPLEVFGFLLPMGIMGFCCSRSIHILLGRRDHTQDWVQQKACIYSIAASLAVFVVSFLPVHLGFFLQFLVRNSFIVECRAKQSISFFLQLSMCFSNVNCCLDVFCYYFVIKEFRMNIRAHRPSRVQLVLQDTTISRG

[5] = biological target: T5, Replicative DNA helicase DnaB (Mycobacterium tuberculosis, UniProt P9WMR3); experiment: DnaB intein splicing inhibitors, dose response, biochemical, cell-free fluorescence (AID 449749); format: functional
T5 sequence (P9WMR3 whole entry): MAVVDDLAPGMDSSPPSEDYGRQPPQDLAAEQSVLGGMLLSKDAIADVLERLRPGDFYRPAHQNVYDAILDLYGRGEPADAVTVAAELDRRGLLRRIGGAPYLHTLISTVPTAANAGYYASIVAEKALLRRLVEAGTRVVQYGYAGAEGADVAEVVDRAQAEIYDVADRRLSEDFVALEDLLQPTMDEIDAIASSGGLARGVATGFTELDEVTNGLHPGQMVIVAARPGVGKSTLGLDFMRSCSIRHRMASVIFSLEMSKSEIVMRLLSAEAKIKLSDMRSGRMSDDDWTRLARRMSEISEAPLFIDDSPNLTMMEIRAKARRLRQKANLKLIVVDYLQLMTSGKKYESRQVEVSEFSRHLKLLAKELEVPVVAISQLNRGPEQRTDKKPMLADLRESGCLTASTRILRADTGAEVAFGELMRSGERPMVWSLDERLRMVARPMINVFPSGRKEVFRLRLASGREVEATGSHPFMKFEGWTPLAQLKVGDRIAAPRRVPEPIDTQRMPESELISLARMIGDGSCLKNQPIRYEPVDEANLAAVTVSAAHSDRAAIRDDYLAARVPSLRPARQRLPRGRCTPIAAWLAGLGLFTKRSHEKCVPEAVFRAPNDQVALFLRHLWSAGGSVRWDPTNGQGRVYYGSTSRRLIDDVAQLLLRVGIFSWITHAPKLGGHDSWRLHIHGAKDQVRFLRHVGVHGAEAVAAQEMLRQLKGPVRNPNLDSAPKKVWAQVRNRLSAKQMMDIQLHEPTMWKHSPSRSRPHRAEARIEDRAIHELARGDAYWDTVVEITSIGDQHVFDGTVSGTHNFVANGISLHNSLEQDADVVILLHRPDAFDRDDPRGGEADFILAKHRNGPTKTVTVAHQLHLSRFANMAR

Protein RecA = biological target: T6, Protein RecA (Mycobacterium tuberculosis, UniProt P9WHJ3); experiment: Fluorescence Cell-Free Homogeneous Dose Retest to Identify Inhibitors of RecA-Intein Splicing Activity. [Related pubchem assays (depositor defined):AID2097, AID2223, AID489010, AID492950]; format: functional
T6 sequence (P9WHJ3 whole entry): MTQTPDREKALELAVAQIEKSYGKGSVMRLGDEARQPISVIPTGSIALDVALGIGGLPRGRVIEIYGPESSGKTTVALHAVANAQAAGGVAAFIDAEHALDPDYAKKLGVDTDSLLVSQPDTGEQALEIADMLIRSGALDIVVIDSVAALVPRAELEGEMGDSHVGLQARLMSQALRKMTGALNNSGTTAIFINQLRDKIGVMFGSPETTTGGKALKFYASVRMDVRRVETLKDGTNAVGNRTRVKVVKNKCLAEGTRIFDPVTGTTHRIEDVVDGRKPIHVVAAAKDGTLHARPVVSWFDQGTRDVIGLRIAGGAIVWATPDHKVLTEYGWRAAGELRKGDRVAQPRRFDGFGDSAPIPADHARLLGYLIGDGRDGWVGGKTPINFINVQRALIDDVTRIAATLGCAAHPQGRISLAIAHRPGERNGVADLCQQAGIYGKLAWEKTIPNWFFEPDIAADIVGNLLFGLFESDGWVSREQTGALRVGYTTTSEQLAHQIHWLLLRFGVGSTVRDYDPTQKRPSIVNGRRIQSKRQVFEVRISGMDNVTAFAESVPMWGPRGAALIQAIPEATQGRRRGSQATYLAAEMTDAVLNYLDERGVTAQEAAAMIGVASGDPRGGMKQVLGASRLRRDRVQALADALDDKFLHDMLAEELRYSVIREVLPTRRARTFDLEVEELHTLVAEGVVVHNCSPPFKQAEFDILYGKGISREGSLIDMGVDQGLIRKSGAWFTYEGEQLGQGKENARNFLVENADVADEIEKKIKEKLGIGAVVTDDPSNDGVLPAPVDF

C=CCn1c(COc2ccccc2)nnc1SC(C)C(=O)N/N=C/c1cc(Cl)ccc1O (stereo unspecified)
EC50 [1]: 2.77 µM (active) | EC50 (Streptokinase A): > 150 µM (not active) | EC50 (Streptococcus): 8.01 µM (active) | Absolute IC50 (XBP1) (X-box-binding protein 1): 10 µM

CCOc1ccccc1N1CCN(C(=O)CCCc2nc3ccccc3s2)CC1
IC50 (Saccharomyces cerevisiae): > 100 µM (inactive) | IC50 [2]: 36.3 µM (active)

CC(C)c1c(O)nc(SCCN(C)C)nc1O
EC50 [3]: 0.75 µM (active)

O=C(c1ccc2c(c1)N(Cc1ccccc1F)C(=O)c1ccccc1S2(=O)=O)N1CCCC1
EC50 [4]: > 32 µM (inactive)

COc1ccc(C=C(c2nc3ccccc3s2)c2nc3ccccc3s2)cc1O
EC50 [4]: 3.05 µM (active) | AC50 [5]: > 380 µM (inactive) | EC50 (Protein RecA): 7.08 µM (active)

Reference: ChEMBL document CHEMBL1201862, “PubChem BioAssay data set” (2004)
